# Results reported in patent US6720331B2, “1-substituted 1,2,3,4-tetrahydro-β-carboline and 3,4-dihydro-β-carboline and analogs as antitumor agents” (National Sun Yat-sen University, priority 2001, dated 2004).
# Assays:
# [1] = system: P-388 (murine leukemia); experiment: Growth inhibition of tumor cell line P-388 (Table 1); type: cell-based; details: 3 day drug exposure; columns A/B = scaffold type
# [2] = system: KB-16 (human nasopharyngeal carcinoma); experiment: Growth inhibition of tumor cell line KB-16 (Table 1); type: cell-based; details: 3 day drug exposure; columns A/B = scaffold type
# [3] = system: A-549 (human lung adenocarcinoma); experiment: Growth inhibition of tumor cell line A-549 (Table 1); type: cell-based; details: 6 day drug exposure; columns A/B = scaffold type
# [4] = system: HT-29 (human colon adenocarcinoma); experiment: Growth inhibition of tumor cell line HT-29 (Table 1); type: cell-based; details: 6 day drug exposure; columns A/B = scaffold type
# [5] = system: MCF-7 (breast adenocarcinoma); experiment: alamarBlue anti-proliferation assay, Breast MCF-7; type: cell-based, human; details: for Percent Growth (Mean ± SEM, n = 2): 72 hour
# Experimental: (§1) The growth effects of compound 29 was tested on 8 different human tumour cell lines. Changes in cell proliferation based on the ability of viable cells to cause alamar Blue to change from its oxidized (non-fluorescent, blue) to a reduced (fluorescent, red) form were evaluated. With the results obtained from the alamarBlue reaction, cell proliferation was quantified and metabolic activity of viable cells examined. Test compound, (29), was tested for its effect on the proliferation of 8 different human tumor cell lines at five final assay concentrations from 100 to 0.01 μM through serial 10-fold dilutions, respectively.
# (§2) Compound 29 was dissolved in 100% ethanol and then diluted with Phosphate Buffer Saline (PBS, pH=7.4) to obtain initial working solutions of 10000, 1000, 100, 10 and 1 μM in 40% ethanol. In testing, 100-fold dilution was made in culture media to get final assay concentrations of 100, 10, 1, 0.1 and 0.01 μM in 0.4% of ethanol.
# (§3) Aliquots of 100 μl of cell suspension (about 2.5-5×10^3/well) were placed in 96well microtiter plates in an atmosphere of 5% CO2 at 37° C. After 24 hours, 100 μl of growth medium, 2 μL of test solution or vehicle (40% DMSO), was added respectively per well in duplicate for an additional 72 hour incubation. Thus, the final concentration of DMSO was 0.4%. The test compound was evaluated at concentrations of 100, 10, 1, 0.1 and 0.01 μM. At the end of the incubation, 20 μL of alamarBlue 75% reagent was added to each well for another 6-hour incubation before detection of cell viability by fluorescent intensity. Fluorescent intensity was measured using a Spectrafluor Plus plate reader with excitation at 530 nm and emission at 590 nm.
# (§4) PG(%)=100×(Mean Ftest−Mean Ftime0)/(Mean Fctrl−Mean Ftime0).
# (§5) PG(%)=100×(Mean Ftest−Mean Ftime0)/(Mean Ftime0−Mean Fblank)
# (§6) A decrease of 50% or more (≧50%) in fluorescent intensity relative to vehicle-treated control indicated significant cytostatic or cytotoxic activity, and a semi-quantitative IC50, TGI and LC50 were then determined by nonlinear regression using GraphPad Prism (GraphPad Software, U.S.A.).
# (§7) IC50 (50% Inhibition Concentration): Test Compound concentration at which the increase from time0 in the number or mass of treated cells was only 50% as much as the corresponding increase in the vehicle-control at the end of experiment.
# (§8) TGI (Total Growth Inhibition): Test compound concentration at which the number or mass of treated cells at the end of the experiment was equal to that at time0.
# (§9) LC50 (50% Lethal Concentration): Test compound concentration at which the number of mass of treated cells at the end of the experiment was half that at time0.
# [6] = system: T47D (breast ductal carcinoma); experiment: alamarBlue anti-proliferation assay, Breast T47D; type: cell-based, human; details: 72 hour
# Experimental: as §1, §2, §3, §4, §5, §6, §7, §8, §9
# [7] = system: HT-29 (colon adenocarcinoma); experiment: alamarBlue anti-proliferation assay, Colon HT-29; type: cell-based, human; details: for Percent Growth (Mean ± SEM, n = 2): 72 hour
# Experimental: as §1, §2, §3, §4, §5, §6, §7, §8, §9
# [8] = system: HL-60 (promyelocytic leukemia); experiment: alamarBlue anti-proliferation assay, Leukemia HL-60; type: cell-based, human; details: for Percent Growth (Mean ± SEM, n = 2): 72 hour
# Experimental: as §1, §2, §3, §4, §5, §6, §7, §8, §9
# [9] = system: HepG2 (hepatoblastoma, liver); experiment: alamarBlue anti-proliferation assay, Liver HepG2; type: cell-based, human; details: for Percent Growth (Mean ± SEM, n = 2): 72 hour
# Experimental: as §1, §2, §3, §4, §5, §6, §7, §8, §9
# [10] = system: PC-6 (lung carcinoma); experiment: alamarBlue anti-proliferation assay, Lung PC-6; type: cell-based, human; details: for Percent Growth (Mean ± SEM, n = 2): 72 hour
# Experimental: as §1, §2, §3, §4, §5, §6, §7, §8, §9
# [11] = system: U-937 (histiocytic lymphoma); experiment: alamarBlue anti-proliferation assay, Lymphoma U-937; type: cell-based, human; details: for Percent Growth (Mean ± SEM, n = 2): 72 hour
# Experimental: as §1, §2, §3, §4, §5, §6, §7, §8, §9
# [12] = system: PC-3 (prostate adenocarcinoma); experiment: alamarBlue anti-proliferation assay, Prostate PC-3; type: cell-based, human; details: for Percent Growth (Mean ± SEM, n = 2): 72 hour
# Experimental: as §1, §2, §3, §4, §5, §6, §7, §8, §9
compound,measurement,setting,value
"CCn1c2ccccc2c2cc(C3=NCCc4c3[nH]c3ccccc43)ccc21 [Compound 29, 1-(9′-Ethyl-3′-carbazole)-3,4-dihydro-β-carboline]","IC50, concentration inhibiting 50% of the growth of P-388",[1],< 1 ng/mL
same,"IC50, concentration inhibiting 50% of the growth of KB-16",[2],<1 ng/mL
same,"IC50, concentration inhibiting 50% of the growth of A-549",[3],<1 ng/mL
same,"IC50, concentration inhibiting 50% of the growth of HT-29",[4],<1 ng/mL
same,"Percent Growth (Mean ± SEM, n = 2)","[5]; MCF-7, 0.01 μM",97 ± 1%
same,"Percent Growth (Mean ± SEM, n = 2)","[5]; MCF-7, 0.1 μM",94 ± 7%
same,"Percent Growth (Mean ± SEM, n = 2)","[5]; MCF-7, 1 μM",85 ± 8%
same,"Percent Growth (Mean ± SEM, n = 2)","[5]; MCF-7, 10 μM",−48 ± 11%
same,"Percent Growth (Mean ± SEM, n = 2)","[5]; MCF-7, 100 μM",−100 ± 0%
same,Estimated TGI (Total Growth Inhibition),"[5]; MCF-7, 72 hour, semi-quantitative",4.2 µM
same,IC50,"[5]; MCF-7, 72 hour, semi-quantitative, read-out: Estimated IC50 (50% Inhibition Concentration)",2000 nM
same,LC50 (50% lethal concentration),"[5]; MCF-7, 72 hour, semi-quantitative, read-out: Estimated cIC50 (footnote c: LC50, 50% Lethal Concentration)",8.3 µM
same,"Percent Growth (Mean ± SEM, n = 2)",[6]; 0.01 μM,92 ± 2%
same,"Percent Growth (Mean ± SEM, n = 2)",[6]; 0.1 μM,88 ± 6%
same,"Percent Growth (Mean ± SEM, n = 2)",[6]; 1 μM,89 ± 3%
same,"Percent Growth (Mean ± SEM, n = 2)",[6]; 10 μM,25 ± 3%
same,"Percent Growth (Mean ± SEM, n = 2)",[6]; 100 μM,−100 ± 4%
same,Estimated TGI (Total Growth Inhibition),[6]; semi-quantitative,10.8 µM
same,IC50,"[6]; semi-quantitative, read-out: Estimated IC50 (50% Inhibition Concentration)",6 µM
same,LC50 (50% lethal concentration),"[6]; semi-quantitative, read-out: Estimated cIC50 (footnote c: LC50, 50% Lethal Concentration)",19.2 µM
same,"Percent Growth (Mean ± SEM, n = 2)","[7]; HT-29, 0.01 μM",97 ± 4%
same,"Percent Growth (Mean ± SEM, n = 2)","[7]; HT-29, 0.1 μM",101 ± 8%
same,"Percent Growth (Mean ± SEM, n = 2)","[7]; HT-29, 1 μM",85 ± 3%
same,"Percent Growth (Mean ± SEM, n = 2)","[7]; HT-29, 10 μM",−30 ± 15%
same,"Percent Growth (Mean ± SEM, n = 2)","[7]; HT-29, 100 μM",−94 ± 3%
same,Estimated TGI (Total Growth Inhibition),"[7]; HT-29, 72 hour, semi-quantitative",5.2 µM
same,IC50,"[7]; HT-29, 72 hour, semi-quantitative, read-out: Estimated IC50 (50% Inhibition Concentration)",2300 nM
same,LC50 (50% lethal concentration),"[7]; HT-29, 72 hour, semi-quantitative, read-out: Estimated cIC50 (footnote c: LC50, 50% Lethal Concentration)",11.7 µM
same,"Percent Growth (Mean ± SEM, n = 2)","[8]; HL-60, 0.01 μM",99 ± 2%
same,"Percent Growth (Mean ± SEM, n = 2)","[8]; HL-60, 0.1 μM",90 ± 6%
same,"Percent Growth (Mean ± SEM, n = 2)","[8]; HL-60, 1 μM",73 ± 5%
same,"Percent Growth (Mean ± SEM, n = 2)","[8]; HL-60, 10 μM",9 ± 3%
same,"Percent Growth (Mean ± SEM, n = 2)","[8]; HL-60, 100 μM",−100 ± 2%
same,Estimated TGI (Total Growth Inhibition),"[8]; HL-60, 72 hour, semi-quantitative",8.3 µM
same,IC50,"[8]; HL-60, 72 hour, semi-quantitative, read-out: Estimated IC50 (50% Inhibition Concentration)",3.2 µM
same,LC50 (50% lethal concentration),"[8]; HL-60, 72 hour, semi-quantitative, read-out: Estimated cIC50 (footnote c: LC50, 50% Lethal Concentration)",22 µM
same,"Percent Growth (Mean ± SEM, n = 2)","[9]; HepG2, 0.01 μM",106 ± 2%
same,"Percent Growth (Mean ± SEM, n = 2)","[9]; HepG2, 0.1 μM",96 ± 11%
same,"Percent Growth (Mean ± SEM, n = 2)","[9]; HepG2, 1 μM",81 ± 4%
same,"Percent Growth (Mean ± SEM, n = 2)","[9]; HepG2, 10 μM",−27 ± 7%
same,"Percent Growth (Mean ± SEM, n = 2)","[9]; HepG2, 100 μM",−100 ± 3%
same,Estimated TGI (Total Growth Inhibition),"[9]; HepG2, 72 hour, semi-quantitative",5.2 µM
same,IC50,"[9]; HepG2, 72 hour, semi-quantitative, read-out: Estimated IC50 (50% Inhibition Concentration)",2200 nM
same,LC50 (50% lethal concentration),"[9]; HepG2, 72 hour, semi-quantitative, read-out: Estimated cIC50 (footnote c: LC50, 50% Lethal Concentration)",12.5 µM
same,"Percent Growth (Mean ± SEM, n = 2)","[10]; PC-6, 0.01 μM",101 ± 1%
same,"Percent Growth (Mean ± SEM, n = 2)","[10]; PC-6, 0.1 μM",97 ± 5%
same,"Percent Growth (Mean ± SEM, n = 2)","[10]; PC-6, 1 μM",95 ± 5%
same,"Percent Growth (Mean ± SEM, n = 2)","[10]; PC-6, 10 μM",24 ± 2%
same,"Percent Growth (Mean ± SEM, n = 2)","[10]; PC-6, 100 μM",−79 ± 11%
same,Estimated TGI (Total Growth Inhibition),"[10]; PC-6, 72 hour, semi-quantitative",12.5 µM
same,IC50,"[10]; PC-6, 72 hour, semi-quantitative, read-out: Estimated IC50 (50% Inhibition Concentration)",5 µM
same,LC50 (50% lethal concentration),"[10]; PC-6, 72 hour, semi-quantitative, read-out: Estimated cIC50 (footnote c: LC50, 50% Lethal Concentration)",32.5 µM
same,"Percent Growth (Mean ± SEM, n = 2)","[11]; U-937, 0.01 μM",103 ± 3%
same,"Percent Growth (Mean ± SEM, n = 2)","[11]; U-937, 0.1 μM",97 ± 6%
same,"Percent Growth (Mean ± SEM, n = 2)","[11]; U-937, 1 μM",90 ± 2%
same,"Percent Growth (Mean ± SEM, n = 2)","[11]; U-937, 10 μM",−3 ± 4%
same,"Percent Growth (Mean ± SEM, n = 2)","[11]; U-937, 100 μM",−93 ± 0%
same,Estimated TGI (Total Growth Inhibition),"[11]; U-937, 72 hour, semi-quantitative",7.9 µM
same,IC50,"[11]; U-937, 72 hour, semi-quantitative, read-out: Estimated IC50 (50% Inhibition Concentration)",3.5 µM
same,LC50 (50% lethal concentration),"[11]; U-937, 72 hour, semi-quantitative, read-out: Estimated cIC50 (footnote c: LC50, 50% Lethal Concentration)",18.3 µM
same,"Percent Growth (Mean ± SEM, n = 2)","[12]; PC-3, 0.01 μM",100 ± 1%
same,"Percent Growth (Mean ± SEM, n = 2)","[12]; PC-3, 0.1 μM",94 ± 3%
same,"Percent Growth (Mean ± SEM, n = 2)","[12]; PC-3, 1 μM",82 ± 4%
same,"Percent Growth (Mean ± SEM, n = 2)","[12]; PC-3, 10 μM",−17 ± 9%
same,"Percent Growth (Mean ± SEM, n = 2)","[12]; PC-3, 100 μM",−93 ± 1%
same,Estimated TGI (Total Growth Inhibition),"[12]; PC-3, 72 hour, semi-quantitative",6.2 µM
same,IC50,"[12]; PC-3, 72 hour, semi-quantitative, read-out: Estimated IC50 (50% Inhibition Concentration)",2500 nM
same,LC50 (50% lethal concentration),"[12]; PC-3, 72 hour, semi-quantitative, read-out: Estimated cIC50 (footnote c: LC50, 50% Lethal Concentration)",15 µM
